Patent publication US7897637B2, “Methods of using flavonoids to enhance memory” (The Salk Institute for Biological Studies, priority 2006, dated 2011)

Test system: ERK1 (p44)
Test: ERK1 (p44) phosphorylation in hippocampal slices (immunoblotting, densitometry)
Format: cell-based, rat
Conditions: for p44 phosphoprotein signal normalized to total protein: 1 μM
Protocol: Western blots panels A and B) of hippocampal slices treated with (A) 1 μM fisetin or (B) pretreated for 30 minutes with either 50 μM PD98059 (PD) or 10 μM U0126 (U) before the addition of 1 μM fisetin for 5 minutes, which blots were probed with the indicated antibodies.
Hippocampal slices in artificial cerebral spinal fluid (ACSF) were treated with either 1 μM fisetin for 5-20 minutes or pretreated for 30 minutes with either 50 μM PD98059 (PD) or 10 μM U0126 (J) before the addition of 1 μM fisetin for 5 minutes. Equal amounts of protein were analyzed by SDS-PAGE and immunoblotting with antibodies to phospho-ERK and phospho-CRFB along with antibodies to the unphosphorylated forms of the proteins. The average phosphoprotein signal from the blots was quantified by densitometry and normalized to total protein was plotted±S.D.

Compound: O=c1c(O)c(-c2ccc(O)c(O)c2)oc2cc(O)ccc12 [fisetin, 3,3′,4′,7-tetrahydroxyflavone]
- p44 phosphoprotein signal normalized to total protein (5 min): 1.98±0.16
- p44 phosphoprotein signal normalized to total protein (10 min): 1.48±0.02
- p44 phosphoprotein signal normalized to total protein (20 min): 1.30±0.09
- increase in ERK 1 phosphorylation (hippocampal slices, 1 μM fisetin): 2 fold
